# Assays:
# Assay type in all cases: cell-based
# [1] = tested on: Gibberella zeae (Fusarium graminearum); test: microbe, parasite or virus in culture; conditions: read-out: % Efficacy
# [2] = tested on: Microdochium nivale; test: Efficacy of mixtures of streptimidone and CtmC, liquid culture in PDB, optical density 620 nm
# [3] = tested on: Zymoseptoria tritici K6105; test: as above; conditions: for Emax at 1.23 ppm: K6105, Streptimidone 1.23 ppm alone (CtmC 0); for Emax at 3.7 ppm: K6105, Streptimidone 3.70 ppm alone (CtmC 0); for Emax at 11.11 ppm: K6105, Streptimidone 11.11 ppm alone (CtmC 0); for Emax at 33.33 ppm: K6105, Streptimidone 33.33 ppm alone (CtmC 0)
# [4] = tested on: Zymoseptoria tritici K6420; test: as above
# [5] = tested on: Zymoseptoria tritici K6318; test: as above
# [6] = tested on: Fusarium Virguliforme K6285; test: as above
# [7] = tested on: Fusarium Virguliforme K6286; test: as above
# [8] = Streptimidone 0.41 ppm alone (CtmC 0)
# [9] = Streptimidone 1.23 ppm alone (CtmC 0)
# [10] = Streptimidone 3.70 ppm alone (CtmC 0)
# [11] = Streptimidone 11.11 ppm alone (CtmC 0)
# [12] = Streptimidone 33.33 ppm alone (CtmC 0)
# [13] = Streptimidone 0.14 ppm alone (CtmC 0)
# [14] = Streptimidone 100 ppm alone (CtmC 0)
compound,measurement,setting,value
C=C/C(C)=C/[C@H](C)C(=O)C[C@H](O)CC1CC(=O)NC(=O)C1 [Streptimidone],Emax at 33.33 ppm,[1],50%
same,Emax at 100 ppm,[1],63%
same,Emax at 0.41 ppm,[2]; [8],0%
same,Emax at 1.23 ppm,[2]; [9],0%
same,Emax at 3.7 ppm,[2]; [10],5%
same,Emax at 11.11 ppm,[2]; [11],8%
same,Emax at 33.33 ppm,[2]; [12],22%
same,Emax at 0.41 ppm,"[3]; K6105, Streptimidone 0.41 ppm alone (CtmC 0), lower sub-table",7%
same,Emax at 1.23 ppm,[3]; lower sub-table,17%
same,Emax at 1.23 ppm,[3]; upper sub-table,27%
same,Emax at 3.7 ppm,[3]; lower sub-table,32%
same,Emax at 3.7 ppm,[3]; upper sub-table,39%
same,Emax at 11.11 ppm,[3]; lower sub-table,48%
same,Emax at 11.11 ppm,[3]; upper sub-table,59%
same,Emax at 33.33 ppm,[3]; lower sub-table,67%
same,Emax at 33.33 ppm,[3]; upper sub-table,81%
same,Emax at 100 ppm,"[3]; K6105, Streptimidone 100 ppm alone (CtmC 0), lower sub-table",83%
same,Emax at 0.41 ppm,"[4]; K6420, Streptimidone 0.41 ppm alone (CtmC 0)",7%
same,Emax at 1.23 ppm,"[4]; K6420, Streptimidone 1.23 ppm alone (CtmC 0)",17%
same,Emax at 3.7 ppm,"[4]; K6420, Streptimidone 3.70 ppm alone (CtmC 0)",32%
same,Emax at 11.11 ppm,"[4]; K6420, Streptimidone 11.11 ppm alone (CtmC 0)",48%
same,Emax at 33.33 ppm,"[4]; K6420, Streptimidone 33.33 ppm alone (CtmC 0)",67%
same,Emax at 100 ppm,"[4]; K6420, Streptimidone 100 ppm alone (CtmC 0)",83%
same,Emax at 0.14 ppm,[5]; [13],0%
same,Emax at 0.41 ppm,[5]; [8],0%
same,Emax at 1.23 ppm,[5]; [9],0%
same,Emax at 3.7 ppm,[5]; [10],3%
same,Emax at 11.11 ppm,[5]; [11],8%
same,Emax at 33.33 ppm,[5]; [12],18%
same,Emax at 100 ppm,[5]; [14],44%
same,Emax at 0.14 ppm,[6]; [13],10%
same,Emax at 0.41 ppm,[6]; [8],21%
same,Emax at 1.23 ppm,[6]; [9],13%
same,Emax at 3.7 ppm,[6]; [10],18%
same,Emax at 11.11 ppm,[6]; [11],18%
same,Emax at 33.33 ppm,[6]; [12],26%
same,Emax at 100 ppm,[6]; [14],53%
same,Emax at 0.14 ppm,[7]; [13],8%
same,Emax at 0.41 ppm,[7]; [8],16%
same,Emax at 1.23 ppm,[7]; [9],14%
same,Emax at 3.7 ppm,[7]; [10],16%
same,Emax at 11.11 ppm,[7]; [11],16%
same,Emax at 33.33 ppm,[7]; [12],30%
same,Emax at 100 ppm,[7]; [14],47%
